Here are results for two compounds from US4734406A, “3-pyridylmethylnaphthyl derivatives and composition containing them useful to inhibit thromboxane synthetase” (priority 1985, dated 1988).

The test system of one assay is human platelets. Briefly: Inhibition of the arachidonic acid-induced aggregation of human platelets in vitro. Type of assay: cell-based. Conditions: Platelet, PRP, 10 min preincubation at 37° C., 2×10^-4 M arachidonic acid. On the procedure:
1. Inhibition of the arachidonic acid-induced aggregation of human platelets in vitro.
The platelet aggregation is followed optically by measurement of the transmission of light in a Born aggregometer. The total volume of the test mix is 0.25 ml. The preincubation time at 37° C. with the test product is 10 min, and aggregation is then induced with 2×10^-4 M arachidonic acid. The test product is, as a rule, tested in five different concentrations in the PRP from three different donors. Dose-effect curves are drawn from the maximal aggregation amplitudes in each case, and the IC50 values are determined graphically. […] The measurements are carried out in the period 1-6 hours after blood sampling.

Assay [1] concerns TXA2 release in platelet-rich human plasma. Put plainly: Thrombin-induced TXA2 release in platelet-rich human plasma in vitro (TXB2 radioimmunoassay). The assay is classed as cell-based. As to conditions: 0.5 h, relative TXB2 content, without test substance = 100%, 0.5 U thrombin + 7.2×10^-7 M arachidonic acid; for activity at 1 µM: 10^-6 mol/l test substance; for activity at 0.1 µM: 10^-7 mol/l test substance. On the procedure: 2. Thrombin-induced TXA2 release in platelet-rich human plasma in vitro Blood is taken, by careful cannulation of the antecubital vein, from apparently healthy male and female volunteers, who have taken no medicaments in the preceding 10-day period, and is immediately stabilized with sodium citrate (ad. 0.38%). Platelet-rich plasma (PRP) is obtained in the supernatant by centrifugation at 140×g for 15 minutes, and the platelet content of this should be in the range 2.5-3.5×10^8 /ml. […] This is stopped in an ice bath and, after addition of tracer and TXB2 -specific antibodies (NEN, Dreieich), the TXB2 content is determined radioimmunologically (TXA2 is unstable under the experimental conditions and thus cannot be measured. The stable hydrolysis product TXB2 is measured in its place). The measured variable is the relative TXB2 content in the platelet incubations from two or three different donors with and without (=100%) the test substance.

For the next assay, the system named is Laser-induced thrombosis. Briefly: Inhibition of Laser-induced thrombosis. Type of assay: in vivo, Sprague-Dawley rats. As to conditions: 10 mg/kg p.o., one hour before start; mesentery arterioles, rat. On the procedure:
3. Inhibition of Laser-induced thrombosis
The investigations of the compounds according to the invention in the model of Laser-induced thrombosis are carried out on male or female Sprague-Dawley rats with a body weight of about 200 g. The animals to be investigated are premedicated s.c. with 0.1 mg of atropine sulfate in solution, and anesthetized i.p. with 100 mg of ketamine hydrochloride and 4 mg of xylazine per kg of body weight. Arterioles from the mesentry, with a diameter of 12-25 μm, are used for the investigation. During the measurement, the exposed mesentry is hyperfused with warmed physiological NaCl (37° C.) or is covered with degassed liquid paraffin. The beam of a 4 W argon laser (supplied by Spectra Physics, Darmstadt, FRG) is introduced coaxially into the inverted ray path of a microscope (ICM 405, LD-Epilan 40/0.60; supplied by Zeiss, Oberkochen, FRG) by means of a ray adaptation and adjustment system (supplied by BIG, Munich, FRG). […]
The number of shots needed to induce a defined thrombus was counted. The frequency of the laser flashes was one lesion every 2 minutes, all the thrombi with a minimum size of 1/4 of the vessel radius which were formed during the observation period being counted and measured. The results of the experiment were statistically analyzed using the x^2 test (L. Cavalli-Sforza, Biometrie, Stuttgart, 1969, pages 49 et seq.).

Molecules are shown by their SMILES. Where a name gives a salt, the structure may show the parent alone.

As a reminder, the IC50 is the concentration that gives 50% inhibition. The low end stands for inhibition by little substance, the high end for a need for much substance. In the assay on human platelets, `Cc1ccncc1C(O)c1ccc2cc(C(=O)O)ccc2c1.Cl` (stereo not shown) [Example 8, 6-[1-Hydroxy-1-(4-methyl-3-pyridyl)methyl]-2-naphthoic acid hydrochloride] returned an IC50 of 6.3 µM. In addition, in assay [1], the activity at 1 µM turned out to be 13% and the activity at 0.1 µM came to 88%. In addition, the “Number of laser shots to form a thrombus (compared with control)” value with Laser-induced thrombosis is “+56%”.
Compound `O=C(O)c1ccc2cc(C(O)c3cccnc3)ccc2c1` (stereo not shown) [Example 9, hydrochloride of 6-[1-hydroxy-1-(3-pyridyl)methyl]-2-naphthoic acid] displayed an IC50 with human platelets of 1.7 µM. For the same compound, in assay [1], the activity at 1 µM is 21% and the activity at 0.1 µM came to 64%.
